Assay [1] concerns the target T1, Adenosine receptor A1 (Homo sapiens) (UniProt P30542).
T1 sequence (whole entry): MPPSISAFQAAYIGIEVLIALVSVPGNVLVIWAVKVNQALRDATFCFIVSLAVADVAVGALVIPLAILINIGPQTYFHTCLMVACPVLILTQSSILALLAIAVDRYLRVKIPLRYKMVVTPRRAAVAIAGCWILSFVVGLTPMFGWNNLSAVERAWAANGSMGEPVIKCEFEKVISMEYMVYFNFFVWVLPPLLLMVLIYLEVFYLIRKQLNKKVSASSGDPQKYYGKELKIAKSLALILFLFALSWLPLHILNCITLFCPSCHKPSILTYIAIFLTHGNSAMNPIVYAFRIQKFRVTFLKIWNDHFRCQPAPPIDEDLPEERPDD
Briefly: Allosteric enhancer activity at human adenosine A1 receptor expressed in CHO cells assessed as inhibition of forskolin-induced cAMP production at 100 nM in presence of 1 pM CCPA. It is filed as functional, cell-based.

Assay [2] deals with Adenosine receptor A2a (Homo sapiens) (UniProt P29274). Briefly: Displacement of [3H]ZM241385 from human adenosine A2A receptor expressed in CHO cell membranes at 10 uM.
Chain of Adenosine receptor A2a (Homo sapiens) (P29274 whole entry): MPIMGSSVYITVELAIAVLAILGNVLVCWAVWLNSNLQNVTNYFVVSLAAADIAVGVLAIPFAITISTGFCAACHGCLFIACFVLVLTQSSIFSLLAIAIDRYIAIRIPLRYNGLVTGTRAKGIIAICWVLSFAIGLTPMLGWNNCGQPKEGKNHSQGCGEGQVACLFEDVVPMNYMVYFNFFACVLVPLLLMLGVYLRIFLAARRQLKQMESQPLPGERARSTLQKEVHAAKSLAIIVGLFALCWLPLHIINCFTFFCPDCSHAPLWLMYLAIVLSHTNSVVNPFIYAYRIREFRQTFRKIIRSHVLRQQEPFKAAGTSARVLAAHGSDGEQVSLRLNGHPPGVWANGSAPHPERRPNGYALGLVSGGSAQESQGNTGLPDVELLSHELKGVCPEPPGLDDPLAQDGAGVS
Assay [3] deals with T2, Adenosine receptor A3 (Homo sapiens) (UniProt P0DMS8).
T2 sequence (whole entry): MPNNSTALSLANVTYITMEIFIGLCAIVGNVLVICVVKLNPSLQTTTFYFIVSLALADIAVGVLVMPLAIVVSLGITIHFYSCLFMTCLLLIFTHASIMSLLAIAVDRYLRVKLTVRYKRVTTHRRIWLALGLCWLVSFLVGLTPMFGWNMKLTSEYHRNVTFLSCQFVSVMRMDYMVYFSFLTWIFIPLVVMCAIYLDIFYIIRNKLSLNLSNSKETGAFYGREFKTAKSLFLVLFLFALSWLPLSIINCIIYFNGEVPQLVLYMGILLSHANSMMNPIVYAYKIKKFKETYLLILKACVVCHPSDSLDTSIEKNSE
Briefly: Displacement of [3H]MRE-3008-F20 from human adenosine 3 receptor expressed in CHO cell membranes at 10 uM. (Loss of bound radioactivity is the signal in a displacement assay; it reports binding, not function.)

Assay [4] has as its target T1, Adenosine receptor A1 (Homo sapiens). Briefly: Allosteric enhancer activity at human adenosine A1 receptor expressed in CHO cell membranes assessed as shift in CCPA binding Ki level at 10 uM by [3H]DPCPX competition binding assay.
Assay [5] shares this target. Briefly: Displacement of [3H]DPCPX from human adenosine A1 receptor expressed in CHO cell membranes at 10 uM.
Assay [6] shares this target. Briefly: Allosteric enhancer activity at human adenosine A1 receptor expressed in CHO cells assessed as inhibition of forskolin-induced cAMP production at 10 uM. It is filed as functional, cell-based.
The target is the same in assay [7]. Briefly: Allosteric enhancer activity at human adenosine A1 receptor expressed in CHO cell membranes assessed as shift in [3H]CCPA Bmax level at 10 uM by saturation binding assay.

As usually defined, the inhibition is the relative decrease from the control value, in per cent. For `CC(C)(C)Cc1c(CCc2ccccc2)sc(N)c1C(=O)c1ccc(Cl)cc1`, the inhibition was 41% in assay [1]; under 15% in assay [2]; under 15% in assay [3]; under 15% in assay [5]; 40% in assay [6]. Also, the figures for the fold change (FC) in assay [4] and in assay [7] were 3.5 and 3.3, respectively.

Consider `Cc1ccc(C#Cc2sc(N)c(C(=O)c3ccc(Cl)cc3)c2CC(C)(C)C)cc1`, for which the inhibition is 73% in assay [1]; under 15% in assay [2]; under 15% in assay [3]; under 15% in assay [5]; 70% in assay [6]. For the same molecule, the fold change (FC) in assay [4] amounted to 7.5; in assay [7], 7.2.

Turning to `Cc1c(C#Cc2ccccc2)sc(N)c1C(=O)c1ccc(Cl)cc1`, the inhibition is 34% in assay [1]; under 15% in assay [2]; under 15% in assay [3]; under 15% in assay [5]; 27% in assay [6]. In addition, the fold change (FC) in assay [4] was determined as 1.5; in assay [7], 2.5.

`Cc1ccc(CCc2sc(N)c(C(=O)c3ccc(Cl)cc3)c2CC(C)(C)C)cc1`: the inhibition was 45% in assay [1]; under 15% in assay [2]; under 15% in assay [3]; under 15% in assay [5]; 43% in assay [6]. The fold change (FC) in assay [4] worked out at 3.8; in assay [7], 5.

`Nc1sc(C#Cc2ccccc2)c(CN2CCN(c3ccc(Cl)cc3)CC2)c1C(=O)c1ccc(Cl)cc1`: the inhibition in assay [1] was 35%; in assay [2], under 15%; in assay [3] it was under 15%; in assay [5], under 15%; in assay [6], 35%. Moreover, the fold change (FC) stood at 3.6 in assay [4] and 3.4 in assay [7].

On to `Nc1sc(-c2ccccc2)c(CN2CCN(c3ccccc3)CC2)c1C(=O)c1ccc(Cl)cc1`, for which the values for the fold change (FC) in assay [4] and in assay [7] were 8.3 and 11.5, respectively.

For `Nc1sc(C#Cc2ccccc2)c(CN2CCN(c3ccc(Cl)c(Cl)c3)CC2)c1C(=O)c1ccc(Cl)cc1`, the inhibition in assay [1] was 24%; in assay [2], under 15%; in assay [3], under 15%; in assay [5] it was under 15%; in assay [6], 22%. The fold change (FC) in assay [4] is 1.7; in assay [7], 2.1.

Regarding `CC(C)(C)Cc1c(C#CC2CCCCC2)sc(N)c1C(=O)c1ccc(Cl)cc1`, the inhibition in assay [1] was 71%; in assay [2] it was under 15%; in assay [3], under 15%; in assay [5] it was under 15%; in assay [6] it was 67%. The fold change (FC) stood at 4.8 in assay [4] and 8 in assay [7].

With `Nc1sc(-c2ccccc2)c(CN(C2CCCCC2)C2CCCCC2)c1C(=O)c1ccc(Cl)cc1`, the results for the fold change (FC) in assay [4] and in assay [7] were 3.2 and 3.5, respectively.

On to `Cc1ccc(C)c(C#Cc2sc(N)c(C(=O)c3ccc(Cl)cc3)c2CC(C)(C)C)c1`, for which the inhibition is 66% in assay [1]; under 15% in assay [2]; under 15% in assay [3]; under 15% in assay [5]; 62% in assay [6]. The results for the fold change (FC) in assay [4] and in assay [7] were 4 and 6.2, respectively.

Regarding `Nc1sc(C#Cc2ccccc2)c(CN2CCN(c3ccc(C(F)(F)F)cc3)CC2)c1C(=O)c1ccc(Cl)cc1`, the inhibition was 33% in assay [1]; under 15% in assay [2]; under 15% in assay [3]; under 15% in assay [5]; 31% in assay [6]. For the same molecule, the fold change (FC) stood at 3 in assay [4] and 2.9 in assay [7].

As to `Nc1sc(C#Cc2ccccc2)c(CN2CCN(c3ccc(F)cc3)CC2)c1C(=O)c1ccc(Cl)cc1`, the inhibition was 38% in assay [1]; under 15% in assay [2]; under 15% in assay [3]; under 15% in assay [5]; 37% in assay [6]. Moreover, the fold change (FC) in assay [4] and in assay [7] was 3.9 throughout.

`Nc1sc(C#Cc2ccccc2)cc1C(=O)c1ccc(Cl)cc1`: the inhibition was 25% in assay [1]; under 15% in assay [2]; under 15% in assay [3]; under 15% in assay [5]; 20% in assay [6]. Besides, the fold change (FC) in assay [4] was 1.5; in assay [7], 2.

On to `COc1ccc(C#Cc2sc(N)c(C(=O)c3ccc(Cl)cc3)c2CC(C)(C)C)cc1OC`, for which the inhibition was 74% in assay [1]; under 15% in assay [2]; under 15% in assay [3]; under 15% in assay [5]; 72% in assay [6]. Also, the fold change (FC) in assay [4] was determined as 6.8; in assay [7] it was 7.1.

With `CCCCCc1ccc(C#Cc2sc(N)c(C(=O)c3ccc(Cl)cc3)c2CC(C)(C)C)cc1`, the inhibition in assay [1] is 62%; in assay [2], under 15%; in assay [3], under 15%; in assay [5] it was under 15%; in assay [6], 60%. Moreover, the fold change (FC) in assay [4] was determined as 3.7; in assay [7] it was 5.5.

As to `COc1ccc(-c2sc(N)c(C(=O)c3ccc(Cl)cc3)c2CC(C)(C)C)cc1`, the values for the fold change (FC) in assay [4] and in assay [7] were 4.3 and 6.1, respectively.

As for `Cc1cc(C)c(C#Cc2sc(N)c(C(=O)c3ccc(Cl)cc3)c2CC(C)(C)C)cc1C`, the inhibition was 67% in assay [1]; under 15% in assay [2]; under 15% in assay [3]; under 15% in assay [5]; 68% in assay [6]. In addition, the fold change (FC) is 7.5 in assay [4] and 7 in assay [7].

In the case of `CC(C)(C)Cc1c(-c2ccccc2)sc(N)c1C(=O)c1ccc(Cl)cc1`, the fold change (FC) in assay [4] worked out at 4.8; in assay [7] it was 6.9.

In the case of `CC(C)(C)Cc1c(C#Cc2ccsc2)sc(N)c1C(=O)c1ccc(Cl)cc1`, the inhibition in assay [1] was 63%; in assay [2] it was under 15%; in assay [3], under 15%; in assay [5], under 15%; in assay [6], 60%. Further, the fold change (FC) was determined as 3.9 in assay [4] and 5.7 in assay [7].

For `Cc1ccc(C#Cc2sc(N)c(C(=O)c3ccc(Cl)cc3)c2C)cc1`, the inhibition was 36% in assay [1]; under 15% in assay [2]; under 15% in assay [3]; under 15% in assay [5]; 31% in assay [6]. For the same molecule, the fold change (FC) in assay [4] turned out to be 1.7; in assay [7], 2.3.

Turning to `Cc1cccc(C#Cc2sc(N)c(C(=O)c3ccc(Cl)cc3)c2CC(C)(C)C)c1`, the inhibition was 71% in assay [1]; under 15% in assay [2]; under 15% in assay [3]; under 15% in assay [5]; 68% in assay [6]. For the same molecule, the values for the fold change (FC) in assay [4] and in assay [7] were 7.1 and 7.5, respectively.

`Nc1sc(CCc2ccccc2)cc1C(=O)c1ccc(Cl)cc1`: the inhibition in assay [1] was 20%; in assay [2] it was under 15%; in assay [3], under 15%; in assay [5] it was under 15%; in assay [6] it was 22%. The fold change (FC) in assay [4] was 1.3; in assay [7], 1.7.

`Nc1sc(CCc2ccccc2)c(-c2ccccc2)c1C(=O)c1ccc(Cl)cc1`: the inhibition in assay [1] was 24%; in assay [2] it was under 15%; in assay [3], under 15%; in assay [5], under 15%; in assay [6], 25%. Besides, the fold change (FC) in assay [4] was 1.6; in assay [7], 2.2.

Regarding `Nc1sc(C#Cc2ccccc2)c(CN2CCN(c3ccccc3)CC2)c1C(=O)c1ccc(Cl)cc1`, the inhibition is 31% in assay [1]; under 15% in assay [2]; under 15% in assay [3]; under 15% in assay [5]; 29% in assay [6]. The fold change (FC) in assay [4] and in assay [7] was 2.8 throughout.

For the molecule `Nc1sc(C#Cc2ccccc2)c(-c2ccccc2)c1C(=O)c1ccc(Cl)cc1`, the inhibition in assay [1] was 25%; in assay [2] it was under 15%; in assay [3] it was under 15%; in assay [5] it was under 15%; in assay [6], 24%. Moreover, the fold change (FC) in assay [4] was found to be 1.5; in assay [7], 1.9.

Take `Cc1ccc(-c2sc(N)c(C(=O)c3ccc(Cl)cc3)c2CC(C)(C)C)cc1`: the fold change (FC) in assay [4] turned out to be 6; in assay [7], 6.4.

These data come from ChEMBL document CHEMBL3352551, “Synthesis and biological evaluation of novel allosteric enhancers of the A1 adenosine receptor based on 2-amino-3-(4'-chlorobenzoyl)-4-substituted-5-arylethynyl thiophene” (J Med Chem, 2014).
